EP0115714A1, “Pharmaceutical composition with psychotropic dopaminergic action” (priority 1983, dated 1984)

What was measured:
[1] = system: toxicité de groupe due à l'amphétamine; test: Antagonism of amphetamine group toxicity (predictive of antipsychotic activity); type: in vivo, souris Charles River CD1; details: Mus musculus, ip; mice, compound i.p. 30 min before amphetamine 30 mg/kg i.p.; mortality over 24 h; confidence limits 10,1 - 26,7; read-out: DE50 (limites de confiance) d'antagonisme de la mortalité due à l'amphétamine
Source text: L'activité antipsychotique d'un composé représentatif, le monomaléate de 2-(1-pipérazinyl)pyrimidine, a été déterminée dans le test de l'antagonisme de la toxicité de groupe due à l'amphétamine (J.H. Burn et al., Arch. Int. Pharmacodyn. Ther. 1958, 113, 290).
Le moncmaléate de 2-(1-pipérazinyl)pyrimidine a été administré à des doses croissantes par voie intrapéritonéale à des lots de 10 souris Charles River CD1 pesant 20-22 g et groupées dans des cages de 22 cm de long, 12 cm de large et 12 cm de haute. Trente minutes après l'administration, on a injecté par voie intrapéritonéale de l'amphétamine à la dose de 30 mg/kg. La mortalité des animaux a été évaluée durant les 24 h qui ont suivi l'injection d'amphétamine et comparée, dans chaque groupe, à celle du groupe d'animaux témoins n'ayant reçu que le véhicule (sérum physiologique).
Le tableau I ci-dessous montre la dose efficace médiane (DE50) d'antagonisme de la mortalité due à l'amphétamine.

[2] = system: catalepsie provoquée par la prochlorpérazine; test: Antagonism of the onset of prochlorperazine-induced catalepsy (cork test; predictive of antidepressant activity); type: in vivo, rats mâles Wistar; details: rats, prochlorperazine 10 mg/kg s.c. 1 h later, read 5 h after
Source text: L'activité antidépressive des composés de l'invention a été évaluée dans le test de l'antagonisme vis-à-vis de l'installation de la catalepsie provoquée par la prochlorrérazine (K. Bizière et al., Arzneimittel Forschung, 1982, 32 (II), 824).
Un composé représentatif de l'invention, à savoir le monomaléate de 2-(1-pipérazinyl)pyrimidine, a été administré par voie intrapéritonéale à des groupes de 10 rats mâles Wistar pesant 220-240 g; des animaux de contrôle ont été en même temps traités par du sérum physiologique. Une heure après, les animaux ont reçu, par voie sous-cutanée, de la prochlorpérazine à une dose de […]. Cinq heures après cette administration, le nombre d'animaux cataleptiques a été estimé par le test du bouchon. Ce test consiste à positionner les animaux de telle sorte qu'ils puissent maintenir pendant au moins 20 seconds leurs pattes en appui sur une colonne formée de trois bouchons de liège superposés (hauteur totale 11 cm). Les performances réalisées pour chaque groupe d'animaux ont été comparées à celles du croupe d'animaux témoins n'ayant reçu que le véhicule et la prochlorpérazine.
Le tableau II ci-dessous montre le pourcentage d'antagonisme de l'installation de la catalepsie provoquée par la prochlorpérazine.

[3] = H.W. Stewart et al., J. Org. Chem. 1953, 18, 1478; cited from earlier work
activité antifilariale = details: H.W. Stewart et al., J. Org. Chem. 1953, 18, 1478; cited from earlier work

Structure (SMILES)	ED50 [1] [mg/kg]	% d'antagonisme de l'installation de la catalepsie provoquée par la prochlorpérazine ([2]; dose 0,1 mg/kg i.p.) [%]	% d'antagonisme de l'installation de la catalepsie provoquée par la prochlorpérazine ([2]; dose 1 mg/kg i.p.) [%]	activité analgésique [3]	activité antifilariale (activité antifilariale)
c1cnc(N2CCNCC2)nc1 [2-(1-pipérazinyl)pyrimidine monomaléate, monomaléatede 2-(1-pipérazinyl)pyrimidine]	16.5	20	80	–	–
c1cnc(N2CCNCC2)nc1 [2-(l-pipérazinyl)pyrimidine]	–	–	–	aucun n'a montré d'activité	aucun n'a montré d'activité
